Tests used:
[1] = system: osteosarcoma cell line HOS; assay: Calcein AM cytotoxicity assay, HOS; format: cell-based, human; details: Homo sapiens, 72 hours
Text: (§1) Absence of toxic effects against mammalian (especially human) cell lines in a wide concentration range is one of the requirements on compounds intended for use in agriculture. Because toxic compounds negatively influence metabolic processes in cells, many standard cytotoxicity assays are based on measurement of metabolisation rate of various artificial substrates. Resulting product is then quantified e.g. by means of spectrometry. The assays can be easily modified for use in 96-well plates. For evaluation of cytotoxic effect of the novel substituted 6-(alkylbenzylamino)purine derivatives of this invention, a microtiter assay based on quantification of metabolisation of Calcein AM was used. The assay is widely used in drug screening programs and in chemosensitivity testing. In live cells, Calcein AM is enzymatically hydrolysed and accumulation of resulting calcein is manifested by green fluorescence.
(§2) The cells were maintained in Nunc/Corning 80 cm^2 plastic tissue culture flasks and cultured in cell culture medium (DMEM with 5 g/l glucose, 2 mM glutamine, 100 U/ml penicillin, 100 μg/ml streptomycin, 10% fetal calf serum and sodium bicarbonate).
(§3) The cell suspensions were prepared and diluted according to the particular cell type and the expected target cell density (10^4 cells per well based on cell growth characteristics) and pippetted (80 μl) into 96-well plates. Inoculates were allowed a pre-incubation period of 24 hours at 37° C., 100% humidity and 5% CO2 for stabilisation. Tested compounds were added in total volume of 20 μl of water at time zero. Usually, test compound was evaluated at six 3-fold dilutions. In routine testing, the highest concentration tested was 100 μM, the eventual changes depended on physico-chemical characteristics of the respective compound. All drug concentrations were tested in triplicates. Incubations of cells with the test compounds lasted for 72 hours at 37° C., in 5% CO2 atmosphere and 100% humidity. At the end of incubation period Calcein AM (Molecular Probes) in PBS was added into final concentration of 1 μg/ml. After another 1 hour of incubation fluorescence (FD) was measured with the Labsystem FIA Reader Fluoroscan Ascent (UK). Growth inhibition (GI) was estimated using the following equitation: GI=(mean FDdrug exposed wells−mean FDblank)/(mean FDcontrol wells−mean FDblank)×100%.

[2] = system: cytokinin-dependent tobacco callus Nicotiana tabacum L. cv. Wisconsin 38; assay: Cytokinin-dependent tobacco callus bioassay; format: cell-based; details: for activity (%) [10^−6 mol · l^−1 BA = 100%]: at concentration with highest activity, n.a. means inactive; for concentration with highest activity: callus fresh weight after four weeks
Method: Stimulatory effect of newly prepared derivatives was tested using cytokinin-dependent tobacco callus. The cytokinin-dependent tobacco callus Nicotiana tabacum L. cv. Wisconsin 38 was maintained at 25° C. in darkness on modified MS medium, containing per 1 liter: 4 μmol of nicotinic acid, 2.4 μmol of pyridoxine hydrochloride, 1.2 μmol of thiamine, 26.6 μmol of glycine, 1.37 μmol of glutamine, 1.8 μmol of myo-inositol, 30 g of sucrose, 8 g of agar, 5.37 μmol of NAA and 0.5 μmol of the compound tested. Subcultivation was carried out every three weeks. Fourteen days before the bioassay, the callus tissue was transferred to the media without 6-benzylaminopurine. The biological activity was determined from the increase of the fresh callus weight after four weeks of cultivation. Five replicates were prepared for each concentration of the compound tested and the entire test was repeated twice. […] The compounds to be tested were dissolved in dimethylsulfoxide (DMSO) and the solution brought up to 10^−3M with distilled water. This stock solution was further diluted with the respective media used for the biotest to a concentration ranging from 10^−8M to 10^−4M.
From the obtained data, the concentration with the highest activity was selected for each compound tested. Relative activity of the compound at this concentration was calculated (Table 3). The activity obtained for 10^−6 M of the control substance 6-benzylaminopurine was postulated as 100% biological activity. […]

[3] = system: human diploid fibroblasts BJ; assay: Calcein AM cytotoxicity assay, BJ; format: cell-based; details: Homo sapiens, Fibroblast, 72 hours
Text: as §1, §2, §3

[4] = system: Human diploid fibroblasts SNF25; assay: MTT viability assay on human diploid fibroblasts; format: cell-based; details: Homo sapiens, Fibroblast; SNF25 passage 19, 72 hours; read-out: IC50 (reduction in mitochondrial activity, MTT)
Method: MTT is a standard colorimetric assay for measurement of proliferation and survival of the cells. Yellow MTT is reduced into violet formazan in metabolically active cells. The amount of formazan is measured by spectrometry. Human diploid fibroblasts SNF25 (passage 19) were seeded in 96-well plate (5000 cells per well). After 6 hours, the cultivation medium (DMEM containing 5 g/l glucose, 2 mM glutamin, 100 U/ml penicillin, 100 μg/ml streptomycin and 10% fetal calf serum) was removed and fresh medium containing a test compound in concentration range of 0-100 μM was added. The concentration was adjusted in cases of compounds with limited solubility. Each concentration was tested in 5 replicates. MTT was added to the cells after 72 hours into final concentration of 0.5 mg/ml. Incubation time was 3 hours. Resulting MTT was disolved in DMSO and absorbance was measured. The cytotoxic effect was estimated as IC=(Awells with compounds/Acontrol wells)×100%.

[5] = system: Arabidopsis seedlings (wild-type, receptor double mutants); assay: Primary root length of Arabidopsis seedlings; format: in vivo; details: 1 μM
Method: FIG. 5 Effect of compound 8 on primary root length of Arabidopsis seedlings. Increase in the length of the primary roots observed in ahk2 ahk3 double mutant seedlings (6 DAG) grown on medium containing 1 μM compound 8.
However, when 1 μM compound 8 was applied to the growth media of ahk2 ahk3 double mutants, significant increase (about 15%) in the length of the primary roots was observed compared to untreated control (FIG. 5).

[6] = system: A. thaliana wild-type and double receptor mutant seedlings; assay: Lateral root formation of Arabidopsis seedlings; format: in vivo, Arabidopsis thaliana; details: 1 and 5 nM BA alone, MS medium
Method: (A) Number of lateral roots formed by wild-type Arabidopsis seedlings (11 DAG)—from left: DMSO control, formation in the presence of cytokinin BA, or compound 8, and antagonism when both compounds were added. (B) Increase in number of lateral roots found with WT and double-receptor mutant seedlings grown on medium containing compound 8.
Cytokinins are known as negative regulators of root growth and development. We grew A. thaliana wild-type and double receptor mutant seedlings with decreased perception of cytokinins on MS medium containing either 1 and 5 nM cytokinin BA to confirm the cytokinin inhibitory effect on initiation of lateral roots, or 1 and 10 nM compound 8, or combination of these substances in concentrations indicated in FIG. 4A.

[7] = system: wild-type Arabidopsis seeds; assay: Germination of Arabidopsis seeds; format: in vivo
Method: Early germination of wild-type Arabidopsis seeds cultivated on MS medium containing indicated concentrations of compound 8 after replacement from dark to white light (16 h light/8 hours dark).
Subsequent testing confirmed positive effect of the compound 8 on germination. After sowing and pretreatment in dark at 4° C., seeds were transferred to light and ambient temperature. After 30 hours more than 60% of seeds sown on medium containing 1 nM compound 8 were germinating, which was twice as much as in the case of control sown on compound 8 free medium. The number of germinating seeds was further enhanced with higher concentration of compound 8 and 80% of seeds were germinated when 10 nM compound 8 was present in the medium (FIG. 6).

c1ccc(CNc2ncnc3nc[nH]c23)cc1 [6-(benzylamino)purine] was tested, and the GI50 [1] was > 100 µM, the “activity (%) [10^−6 mol · l^−1 BA = 100%]” value (shortened to “activity (%)”) [2] was 100% and the “concentration with highest activity” value [2] was 10^−6 mol.l^−1. For the same compound, the GI50 [3] was > 100 µM, the IC50 [4] was > 100 µM and the “elongation of the primary root, wild-type seedlings” value ([5]; wild-type) was “almost completely inhibited”. The “formation of lateral roots” value [6] was “inhibited formation of lateral roots”.

With Cc1cccc(CNc2ncnc3nc[nH]c23)c1O [Compound 8, 6-(2-hydroxy-3-methylbenzylamino)purine] the GI50 [1] was > 50 µM, the “activity (%)” value [2] was 2 (±2) % and the “concentration with highest activity” value [2] was 10^−4 mol.l^−1. For the same compound, the GI50 [3] was > 50 µM, the germinating seeds ([7]; 1 nM in medium, after 30 hours in light) was “more than 60%” and the germinated seeds ([7]; 10 nM in medium) was 80%. For the same compound, the IC50 [4] was > 50 µM and the “increase in the length of the primary roots compared to untreated control” value ([5]; ahk2 ahk3 double mutants, 6 DAG) was “about 15%”.

Cc1ccc(O)c(CNc2ncnc3nc[nH]c23)c1 [Compound 10, 6-(2-hydroxy-5-methylbenzylamino)purine] was tested, and the GI50 [1] was > 100 µM, the “activity (%)” value [2] was 35 (±8) % and the “concentration with highest activity” value [2] was 10^−4 mol.l^−1. The GI50 [3] was > 100 µM and the IC50 [4] was > 100 µM.
